Test results reported in US4005076A, “Hydrazones of 3-formylrifamycin SV” (Gruppo Lepetit S.p.A., priority 1971, dated 1977).
≈ marks a conversion by molar mass, not a printed value. Where two headings read alike, the source gives them in different places.

Legend:
normal polymerases = experiment: effect on normal polymerases, native template; type: biochemical; conditions: about 5 μg/ml
Procedure: (§1) DNA polymerase assays were carried out in a final volume of 100 μl. The assay mixture contained Tris-HCl buffer, pH 8.3, 50 mM; MgAc, 6.0 mM; dithiothreitol, 8.0 mM; NaCl, 60 mM. Adjustment of pH was carried out after addition of inhibitors which were previously dissolved in dimethylsulfoxide (DMSO). The final concentration of DMSO was 0.5% and all control samples included this amount of DMSO. An enzyme concentration that catalyzes an incorporation of approximately 1.0 pmole/hr was used in the assay. The enzyme was in most cases preincubated for 5 minutes with the inhibitor. […]
(§2) In these cases, reactions were initiated by adding enzyme to the complete reaction mixture, which included the inhibitor. […] The products were collected on Millipore filter, washed extensively with 5% TCA and 1 ml. of DMSO-ethanol 0.1 M NaCl mixture (0.5:70:29.5), dried and counted in 2 ml. of BBS3 (Beckman) and 10 ml. of liquifluor (New England Nuclear) in a Packard liquid scintillation counter.

[1] = molecular target: T1, sarcoma virus DNA-polymerases (SSV-DNA-P) (Woolly monkey sarcoma virus, UniProt P03359); experiment: effect on activity of SSV-polymerase; type: biochemical
T1 construct: sarcoma virus DNA-polymerases (SSV-DNA-P)
Source text: Templates used in the Enzymatic Assays were the following: SSV-DNA-P: […]

[2] = molecular target: T2, mouse embryo RNA-polymerase II (ME-RNA-P2) (Mus musculus, UniProt P08775+Q8CFI7); experiment: effect on mouse embryo RNA-polymerase II; type: biochemical; conditions: for remaining activity at 10 µg: read-out: % Control Activity of ME-RNA-P2 at 10μg; for remaining activity at 100 µg: read-out: % Control Activity of ME-RNA-P2 at 100μg
T2 construct: mouse embryo RNA-polymerase II (ME-RNA-P2); endogenous in cells; host or cells: mouse embryo cells
Source text: (§3) Calf-Thymus DNA. Me-RNA-P1 and ME-RNA-P2 : Single Stranded

[3] = test system: mouse embryo DNA-polymerase II (ME-DNA-P2); experiment: effect on mouse embryo DNA-polymerase II; type: biochemical; conditions: activated Calf-Thymus DNA
Source text: (§4) Oligo dT.Poly rA. ME-DNA-P1 and ME-DNA-p2 : activated

[4] = molecular target: T3, RNA-dependent DNA polymerase of murine sarcoma virus (Moloney murine leukemia virus, UniProt P03355); experiment: inhibition of RNA-dependent DNA polymerase of murine sarcoma virus (3H-dTTP incorporation); type: biochemical; conditions: at a concentration of 2-100 μg/ml or less; 60 min
T3 construct: The virion polymerase was purified 20-40 fold; made in house; host or cells: virions from MSV (Moloney) transformed rat 78A1 cells and MSV (Harvey) transformed mouse MEH cells; disrupted virus or polymerase purified 20-40 fold
Procedure: The inhibiting activity of the inventive compounds has been tested on RNA-dependent DNA polymerase of murine sarcoma virus (endogenous) and RNA-dependent DNA polymerase activity of purified enzymes. The inhibition was tested according to the methods described by C. Gurgo et al., Nature, New Biology, 229, 111, 1971. The effect of different concentrations of drugs on polymerase activity was determined by following ^3 H-dTTP (tritiated thymine deoxyriboside triphosphate) incorporation into the insoluble fraction. A typical example of the experimental procedures is the following.
Virus was isolated and purified from murine sarcoma virus (Moloney isolate) transformed rat cells (78Al cells) and murine sarcoma virus (Harvey isolate) transformed mouse cells (MEH cells) as previously described (Green et al., Proc. Nat. Acad. Sci. USA 67, 385-393, 1970, Rokutanda et al., Nature, 227, 1026-1028, 1970). The virion polymerase was purified 20-40 fold by incubation of purified virus with 0.5% NP-40 (nonidet P-40) in 0.1 M NaCl, 0.01 M Tris buffer (pH 7.6), 0.001 M EDTA for 5 minutes at room temperature and zonal centrifugation in 15-30% sucrose gradients in 10 mM sodium phosphate buffer (pH 7.4), 2.5 mM MgCl2, 10 mM dithiothreitol, and 5% glycerol for 24 hours at 38,000 rpm in a Spinco SW41 rotor. The peak fractions of enzyme activity (13-17) of 22 fractions collected, were pooled and stored at -70° C. in 30% glycerol.
Enzyme incubation was performed for 1 hour at 37° C. in 100 μl of reaction mixture containing 40 mM Tris buffer (pH 8.0), 5 mM dithiothreitol, 30 mM NaCl, 2.5 mM MgCl2, 0.1 mM dATP, dGTP, dCTP, and 10 μCi of ^3 H-dTTP (12-18 Ci/mmole) as described by Green et al. in Proc. Nat. Acad. Sci. USA 67, 385-393, 1970. The reaction was terminated by the addition of 150 μl of 1N perchloric acid. Calf thymus DNA (100 μg) was added as carrier; the radioactive DNA product was processed as described in the two papers mentioned above. Endogenous RNA-dependent DNA-polymerase activity was measured after the addition of 0.01% NP-40 to purified virus at the time of assay. The DNA-polymerase activity of purified viral polymerase was measured with 2 μg of poly d (A-T) as template and no NP-40.
Rifamycin derivatives of this invention were dissolved in dimethylsulfoxide (DMSO) at a concentration of 5 mg/ml and stored at 4° C. Inhibition of the endogenous RNA-dependent DNA-polymerase activity was tested by adding 2 μl of derivative appropriately diluted in DMSO or 2 μl of DMSO (control) to the assay mixture prior to addition to disrupted virus which contained 15 to 30 μg of viral protein. Enzyme incubation was performed for 60 minutes at 37° C. Inhibition of purified enzyme was tested by pre-incubation of 2 μl of derivative or DMSO with 30 μl of enzyme (1 to 2 μg of protein) for 10 minutes at 37° C.; then 70 μl of substrate mixture were added and the mixture further incubated and processed as described above.

tumor virus polymerases = experiment: inhibition of tumor virus polymerases, native template; type: biochemical; conditions: about 5 μg/ml
Procedure: as §1, §2

[5] = molecular target: T4, mouse embryo RNA-polymerase I (ME-RNA-P1) (Mus musculus, UniProt O35134+P70700); experiment: effect on mouse embryo RNA-polymerase I; type: biochemical; conditions: for remaining activity at 10 µg: read-out: % Control Activity of ME-RNA-P1 at 10μg; for remaining activity at 100 µg: read-out: % Control Activity of ME-RNA-P1 at 100μg
T4 construct: mouse embryo RNA-polymerase I (ME-RNA-P1); endogenous in cells; host or cells: mouse embryo cells
Source text: as §3

[6] = test system: mouse embryo DNA-polymerase I (ME-DNA-P1); experiment: effect on mouse embryo DNA-polymerase I; type: biochemical; conditions: activated Calf-Thymus DNA
Source text: as §4

[7] = test system: Staphylococcus aureus strain which is resistant to rifampicin (Staph. aureus Tour); experiment: in vitro minimal inhibitory concentration against rifampicin-resistant Staphylococcus aureus strain; type: cell-based; conditions: for MIC: Staphylococcus aureus, read-out: Minimal inhibitory concentration
Procedure: In particular, compounds illustrative of the invention at concentrations of about 10 to 20 μg/ml or less inhibit the growth of a Staph. aureus Tour strain resistant to rifampicin.
One of the most important characteristics of the new hydrazones is their activity against rifampicin-resistant Staphylococcus aureus strains. Rifampicin, that is 3-(4-methyl-1-piperazinyl)iminomethylrifamycin SV, disclosed in U.S. Pat. No. 3,342,810, is the most known and widely used rifamycin derivative in therapeutic practice.
The data of the new compounds are compared with those of representative hydrazones disclosed in U.S. Pat. No. 3,342,810.

[8] = 10μg, template Oligo dT.Poly rA
[9] = 100μg, template Oligo dT.Poly rA
[10] = 10μg, Single Stranded Calf-Thymus DNA
[11] = 100μg, Single Stranded Calf-Thymus DNA

T1 sequence (P03359 642-1310): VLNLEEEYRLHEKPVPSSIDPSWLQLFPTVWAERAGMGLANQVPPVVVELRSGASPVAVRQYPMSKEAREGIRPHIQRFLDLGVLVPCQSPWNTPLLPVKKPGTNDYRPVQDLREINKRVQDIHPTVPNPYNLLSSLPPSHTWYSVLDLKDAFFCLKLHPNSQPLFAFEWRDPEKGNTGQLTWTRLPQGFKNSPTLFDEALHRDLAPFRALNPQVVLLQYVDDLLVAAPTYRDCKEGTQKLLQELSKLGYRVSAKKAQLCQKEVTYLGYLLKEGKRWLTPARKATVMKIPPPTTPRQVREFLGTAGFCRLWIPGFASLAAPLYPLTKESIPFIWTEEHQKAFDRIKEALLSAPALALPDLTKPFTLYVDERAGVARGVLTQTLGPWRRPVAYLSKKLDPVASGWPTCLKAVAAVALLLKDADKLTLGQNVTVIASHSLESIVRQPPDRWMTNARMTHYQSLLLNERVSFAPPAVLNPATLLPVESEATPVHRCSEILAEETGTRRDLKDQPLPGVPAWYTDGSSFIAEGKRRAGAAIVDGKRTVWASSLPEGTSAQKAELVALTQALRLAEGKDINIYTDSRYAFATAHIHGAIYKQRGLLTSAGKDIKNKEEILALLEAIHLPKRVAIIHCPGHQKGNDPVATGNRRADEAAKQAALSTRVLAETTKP

## COC1C=COC2(C)Oc3c(C)c(O)c4c(O)c(c(C=NNc5ccc([N+](=O)[O-])cc5[N+](=O)[O-])c(O)c4c3C2=O)NC(=O)C(C)=CC=CC(C)C(O)C(C)C(O)C(C)C(OC(C)=O)C1C (stereo not shown) [Example 12]
Normal polymerases
  activity on normal polymerases: practically inactive
[1]; 5μg, template Oligo dT.Poly rA
  % Control Activity of SSV-DNA-P at 5μg: 44%
[1]; [8]
  % Control Activity of SSV-DNA-P at 10μg: 34%
[1]; [9]
  % Control Activity of SSV-DNA-P at 100μg: 1%
[2]
  remaining activity at 10 µg: 92%
  remaining activity at 100 µg: 72%
[3]; 5μg
  % Control Activity of ME-DNA-P2 at 5μg: 72%
[3]
  % Control Activity of ME-DNA-P2 at 10μg: 83%
  % Control Activity of ME-DNA-P2 at 100μg: 46%
[4]
  incorporation of H3-dTTP relative to that found in the control tests: less than 10%
Tumor virus polymerases
  inhibition of tumor virus polymerases: 44%
[5]
  remaining activity at 10 µg: 115%
  remaining activity at 100 µg: 100%
[6]; 5μg
  % Control Activity of ME-DNA-P1 at 5μg: 102%
[6]
  % Control Activity of ME-DNA-P1 at 10μg: 83%
  % Control Activity of ME-DNA-P1 at 100μg: 11%
[7]
  MIC: 10 µg/mL (≈ 11 µM)

## COC1C=COC2(C)Oc3c(C)c(O)c4c(O)c(c(C=NN5CCN(C)CC5)c(O)c4c3C2=O)NC(=O)C(C)=CC=CC(C)C(O)C(C)C(O)C(C)C(OC(C)=O)C1C (stereo not shown) [Rifampicin, 3-(4-methyl-1-piperazinyl)iminomethylrifamycin SV]
[1]
  % Control Activity of SSV-DNA-P at 5μg: 94%
  % Control Activity of SSV-DNA-P at 10μg: 97%
  % Control Activity of SSV-DNA-P at 100μg: 96%
[2]
  remaining activity at 10 µg: 81%
  remaining activity at 100 µg: 99%
[3]
  % Control Activity of ME-DNA-P2 at 10μg: 96%
  % Control Activity of ME-DNA-P2 at 100μg: 16%
[5]
  remaining activity at 10 µg: 77.7%
  remaining activity at 100 µg: 86%
[6]
  % Control Activity of ME-DNA-P1 at 10μg: 99%
  % Control Activity of ME-DNA-P1 at 100μg: 56%
[7]
  MIC: > 100 µg/mL
[7]; in vitro, Staphylococcus aureus strain resistant to rifampicin
  Minimal inhibitory concentration: > 100 µg/mL

## COC1C=COC2(C)Oc3c(C)c(O)c4c(O)c(c(C=NN(c5ccccc5)c5ccccc5)c(O)c4c3C2=O)NC(=O)C(C)=CC=CC(C)C(O)C(C)C(O)C(C)C(OC(C)=O)C1C (stereo not shown) [Example 11]
[4]
  incorporation of H3-dTTP relative to that found in the control tests: less than 10%
[7]
  MIC: 2 µg/mL (≈ 2.24 µM)

## COC1C=COC2(C)Oc3c(C)c(O)c4c(O)c(c(C=NNC5CCCCCCC5)c(O)c4c3C2=O)NC(=O)C(C)=CC=CC(C)C(O)C(C)C(O)C(C)C(OC(C)=O)C1C (stereo not shown) [Example 14]
[4]
  incorporation of H3-dTTP relative to that found in the control tests: less than 10%
[7]
  MIC: 5 µg/mL (≈ 5.88 µM)

## COC1C=COC2(C)Oc3c(C)c(O)c4c(O)c(c(C=NNC5CCCCCC5)c(O)c4c3C2=O)NC(=O)C(C)=CC=CC(C)C(O)C(C)C(O)C(C)C(OC(C)=O)C1C (stereo not shown) [Example 13]
[4]
  incorporation of H3-dTTP relative to that found in the control tests: less than 10%
[7]
  MIC: 10 µg/mL (≈ 12 µM)

## COC1C=COC2(C)Oc3c(C)c(O)c4c(O)c(c(C=NN(Cc5ccccc5)c5ccccc5)c(O)c4c3C2=O)NC(=O)C(C)=CC=CC(C)C(O)C(C)C(O)C(C)C(OC(C)=O)C1C (stereo not shown) [Example 15]
[4]
  incorporation of H3-dTTP relative to that found in the control tests: less than 10%
[7]
  MIC: 2 µg/mL (≈ 2.21 µM)

## COC1C=COC2(C)Oc3c(C)c(O)c4c(O)c(cc(OCC(=O)O)c4c3C2=O)NC(=O)C(C)=CC=CC(C)C(O)C(C)C(O)C(C)C(OC(C)=O)C1C (stereo not shown) [rifamycin B]
[1]; 5μg, template Oligo dT.Poly rA
  % Control Activity of SSV-DNA-P at 5μg: 96%
[1]; [8]
  % Control Activity of SSV-DNA-P at 10μg: 104%
[1]; [9]
  % Control Activity of SSV-DNA-P at 100μg: 75%
[2]; [10]
  remaining activity at 10 µg: 102%
[2]; [11]
  remaining activity at 100 µg: 95%
[3]
  % Control Activity of ME-DNA-P2 at 10μg: 46%
  % Control Activity of ME-DNA-P2 at 100μg: 4%
[5]; [10]
  remaining activity at 10 µg: 76%
[5]; [11]
  remaining activity at 100 µg: 85%
[6]
  % Control Activity of ME-DNA-P1 at 10μg: 103%
  % Control Activity of ME-DNA-P1 at 100μg: 81%
